In paper PMC6896172, “Successful Targeting of the Warburg Effect in Prostate Cancer by Glucose-Conjugated 1,4-Naphthoquinones” (Cancers, 2019):

How the values were obtained:
PNT2 cells = test: MTT cytotoxicity assay in PNT2 cells; format: cell-based, human; conditions: 48 h of treatment
Description: (§1) For general experiments human prostate cancer cell lines PC-3 and DU145 (docetaxel-resistant, androgen-independent, AR-FL(−), AR-V7(−)), 22Rv1 and VCaP (docetaxel-sensitive, androgen-independent, AR-FL(+), AR-V7(+), and LNCaP (docetaxel sensitive, androgen-dependent, AR-FL(+), AR-V7(−) were used. PC-3, 22Rv1, LNCaP cells as well as the human prostate non-cancer cells PNT2 and RWPE-1 were purchased from ATCC (Manassas, VA, USA). VCaP were purchased from ECACC (Salisbury, UK). The human fibroblast cell line MRC-9, the human embryonic kidney cell line HEK 293T, as well as the human umbilical vascular endothelial cell line HUVEC were kindly donated by Prof. Dr. Dr. med. Sonja Loges (University Medical Center Hamburg-Eppendorf, Hamburg, Germany). Cells were cultured according to the manufacturers’ instructions and were recently authenticated by a commercial service (Multiplexion, Heidelberg, Germany). Culture conditions are described in the Supplementary Information.
(§2) MTT (3-(4,5-dimethylthiazol-2-yl)-2,5-diphenyltetrazolium bromide) cytotoxicity assay was used for the evaluation of cytotoxicity of the compounds or their combinations. Experiments were performed as previously described. In brief, 6000 cells/well were seeded in 96-well plate, incubated overnight, and treated with the drugs in 100 µL/well of 10% FBS/RPMI media containing 2 g/L of D-(+)-glucose for 48 h, unless otherwise stated. For 2 h treatment the cells were treated with the drugs for 2 h in the culture media, then the media was exchanged to fresh drug-free media (100 µL/well) containing MTT reagent and the further steps were performed as previously described.
(§3) Table S4. Cytotoxic activity of the synthesized compounds. Cytotoxicity was determined in human prostate cancer PC-3 cells versus human prostate non-cancer
(§4) PNT2 cells after 48 h of treatment, as well as its ratio. IC50 was evaluated using MTT assay. SI–selectivity index. #–the IC50s in both cell lines were >100 µM.
(§5) Anisomycin was used as a reference substance.
(§6) No Formula IC50(PC-3) IC50(PNT2) SI […]

PC-3 cells = test: MTT cytotoxicity assay in PC-3 cells; format: cell-based, human; conditions: for IC50: Homo sapiens, PC-3, 48 h, 48 h of treatment; for SI [IC50(PNT2) / IC50(PC-3)]: ratio of IC50 in PNT2 cells to IC50 in PC-3 cells, 48 h
Description: as §1, §2, §3, §4, §5, §6

22Rv1 cells [1] = test: Trypan blue exclusion viability assay; format: cell-based; conditions: Homo sapiens, 48 h of treatment
Method: The in vitro effect of the drugs on cell viability and proliferation was evaluated using trypan blue exclusion assay as described before with minor modifications. In brief, cells (0.2 × 10^6 cells/well) were seeded in 12-well plates, incubated overnight, the media was replaced with fresh media (1 mL/well) and treated with the drugs for 48 h. Cells were harvested by trypsination and the viability was measured using trypan blue staining and Beckman Coulter Vi-CELL (Beckman Coulter, Krefeld, Germany).

LNCaP cells = test: MTT cytotoxicity assay in LNCaP cells; format: cell-based; conditions: Homo sapiens, 48 h of treatment, cancer
Method: (§7) Dr. Dr. med. Sonja Loges (University Medical Center Hamburg-Eppendorf, Hamburg, Germany). Cells were cultured according to the manufacturers’ instructions and were recently authenticated by a commercial service (Multiplexion, Heidelberg, Germany). Culture conditions are described in the Supplementary Information.
as §2

22Rv1 cells [2] = test: Colony formation assay; format: cell-based, human; conditions: 22Rv1 cells treated with non-cytotoxic concentrations for 48 h
Method: Colony formation assays were performed as described before. In brief, cells were treated with the drugs for 48 h and then 100 alive cells were plated into each well of 6-well plates and incubated for 10 days. Surviving colonies were fixed, stained with Giemsa solution and counted.

22Rv1 cells [3] = test: Western blotting of treated cells; format: cell-based, human; conditions: for AR-FL and AR-V7 expression: 48 h treatment; for LC3B-II and SQSTM1 levels (autophagy markers): pre-cytotoxic and cytotoxic concentrations, 48 h
Method: Preparation of protein extracts for western blotting was performed as described previously. In brief, for western blotting, 1 × 10^6 cells/well were seeded in Petri dishes (ø 6 cm TC Dish (Sarstedt, Numbrecht, Germany) in 5 mL/dish), incubated overnight and treated with drugs in 5 mL/dish for an indicated time. Cells were harvested using a cell scraper, pelleted, and resuspended in the lysis buffer containing protease and phosphatase inhibitors. Further sample preparation and western blotting were performed as previously described with slight modifications. Relative optical density of the detected bands was quantified with Quantity One 4.6 software (Bio-Rad, Hercules, CA, USA). The primary and secondary antibodies used are listed in the Supplementary Information.

HEK293 cells = test: MTT cytotoxicity assay in HEK293 cells; format: cell-based; conditions: Homo sapiens, 48 h of treatment, non-cancer
Method: as §7, §2

DU145 cells = test: MTT cytotoxicity assay in DU145 cells; format: cell-based; conditions: Homo sapiens, DU-145, 48 h of treatment, cancer
Method: as §7, §2

MRC-9 cells = test: MTT cytotoxicity assay in MRC-9 cells; format: cell-based; conditions: Homo sapiens, MRC9, 48 h of treatment, non-cancer
Method: as §7, §2

VCaP cells = test: MTT cytotoxicity assay in VCaP cells; format: cell-based; conditions: Homo sapiens, 48 h of treatment, cancer
Method: as §7, §2

22Rv1 cells [4] = test: MTT cytotoxicity assay in 22Rv1 cells; format: cell-based, human; conditions: Homo sapiens
Method: as §7, §2

RWPE-1 cells = test: MTT cytotoxicity assay in RWPE-1 cells; format: cell-based; conditions: Homo sapiens, 48 h of treatment, non-cancer
Method: as §7, §2

HUVEC cells = test: MTT cytotoxicity assay in HUVEC cells; format: cell-based; conditions: Homo sapiens, 48 h of treatment, non-cancer
Method: as §7, §2

[5] = 22Rv1, 48 h of treatment, cancer, read-out: IC50 (22Rv1)
[6] = 22Rv1 cells, 2 h treatment, read-out: IC50 after 2 h of treatment

COC1=CC(=O)c2ccccc2C1=O [Compound 1]
IC50 (PNT2 cells; Homo sapiens, PNT2, 48 h): 14.5 µM
IC50 (PC-3 cells): 9.33 µM
SI [IC50(PNT2) / IC50(PC-3)] (PC-3 cells): 1.55

CC1(C)OC2OC3C(COC4=CC(=O)c5ccccc5C4=O)OC(C)(C)OC3C2O1 (stereo not shown) [Compound 2]
IC50 (PNT2 cells; Homo sapiens, PNT2, 48 h): 16.2 µM
IC50 (PC-3 cells): 13.1 µM
SI [IC50(PNT2) / IC50(PC-3)] (PC-3 cells): 1.24

CC1(C)OC2OC(C(O)COC3=CC(=O)c4ccccc4C3=O)C(O)C2O1 (stereo not shown) [Compound 3]
IC50 (PNT2 cells; Homo sapiens, PNT2, 48 h): 31.1 µM
IC50 (PC-3 cells): 24.2 µM
SI [IC50(PNT2) / IC50(PC-3)] (PC-3 cells): 1.28

O=C1C=C(OCC2OC(O)C(O)C(O)C2O)C(=O)c2ccccc21 (stereo not shown) [Compound 4]
IC50 (PNT2 cells; Homo sapiens, PNT2, 48 h): > 100 µM
IC50 (PC-3 cells): > 100 µM

COC1=CC(=O)c2c(O)cccc2C1=O [Compound 5]
IC50 (PNT2 cells; Homo sapiens, PNT2, 48 h): 5.84 µM
IC50 (PC-3 cells): 4.46 µM
SI [IC50(PNT2) / IC50(PC-3)] (PC-3 cells): 1.31

CC1(C)OC2OC3C(COC4=CC(=O)c5c(O)cccc5C4=O)OC(C)(C)OC3C2O1 (stereo not shown) [Compound 6]
IC50 (PNT2 cells; Homo sapiens, PNT2, 48 h): 4.12 µM
IC50 (PC-3 cells): 4.51 µM
SI [IC50(PNT2) / IC50(PC-3)] (PC-3 cells): 0.91

O=C1C(OC[C@H]2OC(O)[C@H](O)[C@@H](O)[C@@H]2O)=CC(=O)c2c(O)cccc21 (stereo partly shown) [Compound 8]
IC50 (22Rv1 cells [1]): 19.4 µM
IC50 (LNCaP cells): 20 µM
cancer cell colony formation (22Rv1 cells [2]): suppress cancer cell colony formation
AR-FL and AR-V7 expression (22Rv1 cells [3]): downregulated both, AR full length (AR-FL) and AR-V7
LC3B-II and SQSTM1 levels (autophagy markers) (22Rv1 cells [3]): accumulation of both, LC3B-II and SQSTM1
IC50 (PNT2 cells): 73.7 µM
IC50 (PNT2 cells; Homo sapiens, PNT2, 48 h): 79.3 µM
IC50 (HEK293 cells): 40 µM
IC50 (DU145 cells): 10.6 µM
IC50 (MRC-9 cells): 31.6 µM
IC50 (VCaP cells): 56.7 µM
IC50 (22Rv1 cells [4]; [5]): 30.1 µM
IC50 (22Rv1 cells [4]; [6]): 92.4 µM
IC50 (RWPE-1 cells): 49.8 µM
IC50 (HUVEC cells): 73 µM

COC1=CC(=O)c2cccc(O)c2C1=O [Compound 9]
IC50 (PNT2 cells; Homo sapiens, PNT2, 48 h): 4.05 µM
IC50 (PC-3 cells): 2.85 µM
SI [IC50(PNT2) / IC50(PC-3)] (PC-3 cells): 1.42

CC1(C)OC2OC3C(COC4=CC(=O)c5cccc(O)c5C4=O)OC(C)(C)OC3C2O1 (stereo not shown) [Compound 10]
IC50 (PNT2 cells; Homo sapiens, PNT2, 48 h): 6.37 µM
IC50 (PC-3 cells): 4.16 µM
SI [IC50(PNT2) / IC50(PC-3)] (PC-3 cells): 1.53

O=C1C=C(OC[C@H]2OC(O)[C@H](O)[C@@H](O)[C@@H]2O)C(=O)c2c(O)cccc21 (stereo partly shown) [Compound 12]
IC50 (22Rv1 cells [1]): 14.6 µM
IC50 (LNCaP cells): 24 µM
cancer cell colony formation (22Rv1 cells [2]): suppress cancer cell colony formation
AR-FL and AR-V7 expression (22Rv1 cells [3]): downregulated both, AR full length (AR-FL) and AR-V7
LC3B-II and SQSTM1 levels (autophagy markers) (22Rv1 cells [3]): accumulation of both, LC3B-II and SQSTM1
IC50 (PNT2 cells; Homo sapiens, PNT2, 48 h): 103 µM
IC50 (HEK293 cells): 69.4 µM
IC50 (DU145 cells): 37.1 µM
IC50 (MRC-9 cells): 153 µM
IC50 (VCaP cells): 57.5 µM
IC50 (22Rv1 cells [4]; [5]): 23.4 µM
IC50 (22Rv1 cells [4]; [6]): 94.9 µM
IC50 (RWPE-1 cells): 48 µM
IC50 (HUVEC cells): 45.7 µM

COC1=CC(=O)c2c(O)ccc(O)c2C1=O [Compound 13]
IC50 (PNT2 cells; Homo sapiens, PNT2, 48 h): 9.84 µM
IC50 (PC-3 cells): 5.38 µM
SI [IC50(PNT2) / IC50(PC-3)] (PC-3 cells): 1.83

CC1(C)OC2OC3C(COC4=CC(=O)c5c(O)ccc(O)c5C4=O)OC(C)(C)OC3C2O1 (stereo not shown) [Compound 14]
IC50 (PNT2 cells; Homo sapiens, PNT2, 48 h): 18.6 µM
IC50 (PC-3 cells): 17.7 µM
SI [IC50(PNT2) / IC50(PC-3)] (PC-3 cells): 1.05

CC1(C)OC2OC(C(O)COC3=CC(=O)c4c(O)ccc(O)c4C3=O)C(O)C2O1 (stereo not shown) [Compound 15]
IC50 (PNT2 cells; Homo sapiens, PNT2, 48 h): 5.65 µM
IC50 (PC-3 cells): 5.46 µM
SI [IC50(PNT2) / IC50(PC-3)] (PC-3 cells): 1.03
